Some test systems named below: ACHN; BT-549; CCRF-CEM; HCT-15; HT-29; IGROV-1; K562; NCI-H226; NCI-H522; OVCAR-3; OVCAR-4; OVCAR-8; PC-3; RXF 393; SF-539; SNB-19; SNB-75; SW-620; TK-10; UACC-257.
Holding throughout (test): NCI tumour cell line growth inhibition, 48 h

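Cultured in 96-well plates, cells were exposed to test compound for 48 hours across five concentrations. Here, GI50 denotes the concentration required for 50% inhibition of growth.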 Calls of active or inactive are those of the source. Cut-off read from the data, not from the text of the source: active = GI50 up to about 1.1 µM and inactive = higher. Bounds are passed on as bounds.

On to `COC(=O)[C@@H]1C[C@H]([Se]c2ccccc2)CN1S(=O)(=O)c1ccc(C)cc1`, for which the GI50 in the assay with ACHN was > 100 µM (inactive); in the assay on BT-549 it was 98.2 µM (inactive); with CCRF-CEM, 61 µM (inactive); with HCT-15, over 100 µM; with HT-29, 49.7 µM (inactive); in the assay on IGROV-1, > 100 µM (inactive). The GI50 with K562 is 34.7 µM (inactive); in the assay on NCI-H226 it was > 100 µM (inactive); in the assay with NCI-H522, 38.9 µM (inactive); in the assay on OVCAR-3, 56 µM (inactive); with OVCAR-4 it was 42.8 µM (inactive); in the assay on OVCAR-8, > 100 µM (inactive). In addition, the GI50 with PC-3 was 26.5 µM (inactive); in the assay on RXF 393 it was 39.4 µM (inactive); with SF-539, > 100 µM (inactive); in the assay with SNB-19, > 100 µM (inactive); with SNB-75 it was 2.87 µM (inactive); in the assay with SW-620, > 100 µM (inactive). Also, the GI50 with TK-10 and with UACC-257 was > 100 µM (inactive) each time.
As to `O=C1/C(=C/c2ccccc2)CCc2ccc(Cl)nc21`, the GI50 in the assay on ACHN is 11.9 µM (inactive); in the assay on BT-549, 13.9 µM (inactive); in the assay on CCRF-CEM, 1.43 µM (inactive); in the assay on HCT-15, 3.52 µM; in the assay with HT-29, 1.92 µM (inactive); in the assay on IGROV-1, 4.5 µM (inactive). For the same compound, the GI50 is 2.17 µM (inactive) in the assay on K562; 20.6 µM (inactive) with NCI-H226; 2.76 µM (inactive) with NCI-H522; 21.8 µM (inactive) in the assay on OVCAR-3; 22.5 µM (inactive) in the assay on OVCAR-4; 7.8 µM (inactive) in the assay with OVCAR-8. For the same compound, the GI50 is 11.7 µM (inactive) in the assay with PC-3; 8.2 µM (inactive) in the assay on RXF 393; 3.61 µM (inactive) with SF-539; 15 µM (inactive) in the assay with SNB-19; 17.2 µM (inactive) in the assay on SNB-75; 3.98 µM (inactive) in the assay with SW-620. For the same compound, the GI50 in the assay with TK-10 was 13.9 µM (inactive); in the assay with UACC-257, 5.4 µM (inactive).
For the compound `CC(C)OC(=O)c1ccc(NCC2=CC(=O)C=CC2=O)cc1Cl`, the GI50 with ACHN is 4.36 µM (inactive); with BT-549, 2.62 µM (inactive); in the assay with CCRF-CEM it was 0.448 µM (active); with HCT-15 it was 4.4 µM; in the assay on HT-29, 16.3 µM (inactive); with IGROV-1, 11.5 µM (inactive). For the same compound, the GI50 is 2.73 µM (inactive) in the assay with K562; 25.7 µM (inactive) with NCI-H226; 1.02 µM (active) in the assay with NCI-H522; 10.4 µM (inactive) in the assay on OVCAR-3; 12.7 µM (inactive) with OVCAR-4; 5.68 µM (inactive) in the assay on OVCAR-8. In addition, the GI50 with PC-3 is 8.3 µM (inactive); with RXF 393, 17.1 µM (inactive); with SF-539 it was 12 µM (inactive); in the assay with SNB-19 it was 6.11 µM (inactive); in the assay on SNB-75, 15.8 µM (inactive); in the assay on SW-620 it was 11.5 µM (inactive). For the same compound, the GI50 was 15.7 µM (inactive) with TK-10 and 16.1 µM (inactive) in the assay with UACC-257.
For `OCCOc1ccc(-c2cc(-c3ccccn3)nc(-c3ccccn3)c2)cc1`, the GI50 was 0.0661 µM (active) in the assay on ACHN; 0.352 µM (active) with BT-549; 0.0618 µM (active) in the assay with CCRF-CEM; 0.0574 µM in the assay on HCT-15; 0.112 µM (active) in the assay on HT-29; 0.286 µM (active) in the assay with IGROV-1. Further, the GI50 in the assay with K562 was 0.107 µM (active); with NCI-H226, 0.661 µM (active); with NCI-H522, 0.661 µM (active); in the assay with OVCAR-3, 0.11 µM (active); in the assay with OVCAR-4, 0.0731 µM (active); with OVCAR-8 it was 0.07 µM (active). The GI50 was 0.296 µM (active) with PC-3; 0.337 µM (active) with RXF 393; 0.19 µM (active) with SF-539; 0.284 µM (active) in the assay on SNB-19; 0.458 µM (active) in the assay with SNB-75; 0.267 µM (active) in the assay with SW-620. The results for the GI50 in the assay on TK-10 and with UACC-257 were 0.889 µM (active) and 0.481 µM (active), respectively.
In the case of `O=S(=O)(O)CCCc1cccc2ccccc12`, the GI50 in the assay with ACHN was > 100 µM (inactive); in the assay with BT-549, > 100 µM (inactive); in the assay on CCRF-CEM, > 100 µM (inactive); in the assay with HCT-15, over 100 µM; in the assay on HT-29 it was > 100 µM (inactive); in the assay with IGROV-1, > 100 µM (inactive). Besides, the GI50 in the assay on K562, with NCI-H226, with NCI-H522, in the assay on OVCAR-3, in the assay on OVCAR-4 and with OVCAR-8 was > 100 µM (inactive) throughout. Also, the GI50 in the assay with PC-3, with RXF 393, with SF-539, with SNB-19, in the assay on SNB-75 and with SW-620 was > 100 µM (inactive) throughout. Further, the GI50 in the assay with TK-10 and in the assay on UACC-257 was > 100 µM (inactive) throughout.
`C=C(Cl)[C@@](Cl)(CBr)CC[C@@H](Br)C(C)(C)Cl`: the GI50 in the assay with ACHN is 0.149 µM (active); with BT-549 it was 3.66 µM (inactive); with CCRF-CEM it was 15.8 µM (inactive); in the assay with HCT-15 it was 0.759 µM; in the assay on HT-29 it was 0.253 µM (active); in the assay on IGROV-1 it was 11.7 µM (inactive). Moreover, the GI50 was 0.473 µM (active) in the assay on K562; 26.2 µM (inactive) with NCI-H226; 22.4 µM (inactive) in the assay with NCI-H522; 0.506 µM (active) with OVCAR-3; 0.912 µM (active) in the assay with OVCAR-4; 0.466 µM (active) with OVCAR-8. Further, the GI50 is 0.555 µM (active) in the assay on PC-3; 0.126 µM (active) in the assay with RXF 393; 0.141 µM (active) in the assay on SF-539; 0.499 µM (active) with SNB-19; 0.24 µM (active) in the assay with SNB-75; 0.321 µM (active) in the assay on SW-620. In addition, the GI50 with TK-10 was 0.269 µM (active); with UACC-257, 0.557 µM (active).
Turning to `[N-]=[N+]=NCC(=O)c1cnc(O)nc1O`, the GI50 was > 100 µM (inactive) in the assay with ACHN; > 100 µM (inactive) with BT-549; > 100 µM (inactive) with CCRF-CEM; over 100 µM with HCT-15; > 100 µM (inactive) in the assay with HT-29; > 100 µM (inactive) in the assay with IGROV-1. In addition, the GI50 in the assay with K562, in the assay with NCI-H226, with NCI-H522, in the assay with OVCAR-3, in the assay on OVCAR-4 and in the assay on OVCAR-8 was > 100 µM (inactive) each time. Moreover, the GI50 in the assay on PC-3, with RXF 393, in the assay with SF-539, in the assay with SNB-19, in the assay on SNB-75 and in the assay with SW-620 was > 100 µM (inactive) in each case. Besides, the GI50 in the assay with TK-10 and with UACC-257 was > 100 µM (inactive) throughout.
Take `COC1CCON1C(=O)c1ccccc1` (stereo not given): the GI50 is > 10 µM (inactive) in the assay on ACHN; > 10 µM (inactive) with BT-549; > 10 µM (inactive) in the assay on CCRF-CEM; over 10 µM in the assay on HCT-15; > 10 µM (inactive) with HT-29; > 10 µM (inactive) with IGROV-1. The GI50 in the assay on K562, in the assay with NCI-H226, with NCI-H522, in the assay on OVCAR-3, with OVCAR-4 and in the assay with OVCAR-8 was > 10 µM (inactive) each time. Also, the GI50 with PC-3, in the assay with RXF 393, in the assay on SF-539, in the assay with SNB-19, in the assay on SNB-75 and in the assay on SW-620 was > 10 µM (inactive) in each case. Also, the GI50 in the assay on TK-10 and in the assay on UACC-257 was > 10 µM (inactive) throughout.
`CC(C)=CCc1c2c(c3occ(-c4ccc(O)c(O)c4)c(=O)c3c1O)C=CC(C)(C)O2` [POMIFERIN]: the GI50 in the assay with ACHN is 2.39 µM (inactive); in the assay with BT-549 it was 3.46 µM (inactive); with CCRF-CEM, 0.723 µM (active); in the assay with HCT-15, 1.91 µM; with HT-29 it was 1.84 µM (inactive); with IGROV-1, 2.11 µM (inactive). Further, the GI50 was 2.29 µM (inactive) in the assay on K562; 16.9 µM (inactive) in the assay with NCI-H226; 0.188 µM (active) in the assay on NCI-H522; 1.66 µM (inactive) with OVCAR-3; 1.59 µM (inactive) in the assay with OVCAR-4; 2.81 µM (inactive) in the assay on OVCAR-8. Further, the GI50 was 1.61 µM (inactive) in the assay on PC-3; 2.39 µM (inactive) in the assay on RXF 393; 1.91 µM (inactive) in the assay on SF-539; 1.96 µM (inactive) with SNB-19; 3.61 µM (inactive) in the assay on SNB-75; 0.714 µM (active) with SW-620. The GI50 was 1.6 µM (inactive) in the assay on TK-10 and 1.91 µM (inactive) in the assay on UACC-257.
With `CC1=Cc2ccc(C)cc2C(=O)C1=O`, the GI50 in the assay with ACHN was 1.95 µM (inactive); with BT-549 it was 21.2 µM (inactive); with CCRF-CEM, 0.176 µM (active); in the assay with HCT-15 it was 19.3 µM; with HT-29, 20.1 µM (inactive); with IGROV-1, 14.4 µM (inactive). Moreover, the GI50 in the assay on K562 was 2.07 µM (inactive); with NCI-H226 it was 36.1 µM (inactive); with NCI-H522, 1.64 µM (inactive); with OVCAR-3 it was 4.79 µM (inactive); in the assay on OVCAR-4, 4.94 µM (inactive); with OVCAR-8, 5.3 µM (inactive). For the same compound, the GI50 in the assay with PC-3 was 15.8 µM (inactive); in the assay with RXF 393, 1.83 µM (inactive); in the assay with SF-539 it was 6.28 µM (inactive); in the assay on SNB-19 it was 22.2 µM (inactive); in the assay with SNB-75, 8.3 µM (inactive); in the assay with SW-620, 2.81 µM (inactive). The GI50 in the assay with TK-10 is 1.83 µM (inactive); with UACC-257 it was 5.89 µM (inactive).
